# ChEMBL document CHEMBL2413039, “Novel N-hydroxyfurylacrylamide-based histone deacetylase (HDAC) inhibitors with branched CAP group (Part 2)” (Bioorg Med Chem, 2013)
# How the values were obtained:
# [1] = Intrinsic aqueous solubility of the compound at pH 7.4 by Avdeef-Tsinman potentiometric titration method; assay type: physicochemical; conditions: read-out: Intrinsic_solubility
# PC-3 = experiment: cells; assay type: functional, cell-based; conditions: Homo sapiens, PC-3, 48 h
# [2] = Partition coefficient, log D of the compound at pH 7.4 by Avdeef-Tsinman potentiometric titration method; assay type: physicochemical; conditions: octanol/water
# HCT-116 = experiment: cells; assay type: functional, cell-based; conditions: Homo sapiens, HCT-116, 48 h
# Histone deacetylase = assay type: protein assay, Homo sapiens; conditions: hela
# Histone deacetylase 4 = Histone deacetylase 4 (Homo sapiens, UniProt P56524); experiment: Inhibition of human recombinant HDAC4 using p53 residues 379-382 (RHKKAc) as substrate
# Histone deacetylase 1 = Histone deacetylase 1 (Homo sapiens, UniProt Q13547); experiment: Inhibition of human recombinant HDAC1 using p53 residues 379-382 (RHKKAc) as substrate
# HepG2 = experiment: cells; assay type: functional, cell-based; conditions: Homo sapiens, HepG2, 48 h
# Homo sapiens [3] = species on record: Homo sapiens; experiment: Selectivity ratio of IC50 for human recombinant HDAC4 to human recombinant HDAC6
# A549 = experiment: cells; assay type: functional, cell-based; conditions: Homo sapiens, A549, 48 h
# [4] = molecular target: T1, Protein deacetylase HDAC6 (Homo sapiens, UniProt Q9UBN7)
# T1 sequence (Q9UBN7 whole entry): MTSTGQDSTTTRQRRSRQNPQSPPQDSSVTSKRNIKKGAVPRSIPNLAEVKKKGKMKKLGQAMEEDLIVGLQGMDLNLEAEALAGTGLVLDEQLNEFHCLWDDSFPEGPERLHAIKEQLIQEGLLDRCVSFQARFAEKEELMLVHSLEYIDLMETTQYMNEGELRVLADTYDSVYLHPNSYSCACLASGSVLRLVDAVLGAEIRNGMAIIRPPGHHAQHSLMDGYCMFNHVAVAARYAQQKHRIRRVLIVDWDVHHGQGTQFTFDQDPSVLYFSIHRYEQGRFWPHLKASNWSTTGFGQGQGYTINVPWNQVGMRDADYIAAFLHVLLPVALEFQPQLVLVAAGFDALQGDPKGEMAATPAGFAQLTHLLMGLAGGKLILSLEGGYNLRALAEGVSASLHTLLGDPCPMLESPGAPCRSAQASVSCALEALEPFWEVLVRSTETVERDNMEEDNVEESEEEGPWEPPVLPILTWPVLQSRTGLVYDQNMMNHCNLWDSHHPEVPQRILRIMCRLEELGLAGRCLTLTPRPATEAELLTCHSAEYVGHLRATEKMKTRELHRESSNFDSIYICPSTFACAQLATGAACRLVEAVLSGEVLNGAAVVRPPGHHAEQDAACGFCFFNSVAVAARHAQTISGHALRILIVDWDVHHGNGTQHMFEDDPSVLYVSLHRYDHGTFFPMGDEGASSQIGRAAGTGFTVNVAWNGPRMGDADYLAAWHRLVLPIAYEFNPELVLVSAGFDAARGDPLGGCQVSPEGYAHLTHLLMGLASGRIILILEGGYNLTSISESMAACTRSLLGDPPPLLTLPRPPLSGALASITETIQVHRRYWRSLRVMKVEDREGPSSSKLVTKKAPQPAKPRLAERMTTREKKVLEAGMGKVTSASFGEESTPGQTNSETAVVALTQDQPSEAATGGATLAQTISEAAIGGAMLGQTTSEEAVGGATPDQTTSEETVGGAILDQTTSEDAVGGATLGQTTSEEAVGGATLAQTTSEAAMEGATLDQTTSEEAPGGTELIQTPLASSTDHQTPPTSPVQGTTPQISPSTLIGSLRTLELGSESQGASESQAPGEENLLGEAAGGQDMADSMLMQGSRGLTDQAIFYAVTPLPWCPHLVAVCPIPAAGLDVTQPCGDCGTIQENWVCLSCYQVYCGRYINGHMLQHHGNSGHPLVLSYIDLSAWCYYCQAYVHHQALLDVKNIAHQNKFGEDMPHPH
# Homo sapiens [5] = species on record: Homo sapiens; experiment: Selectivity ratio of IC50 for human recombinant HDAC1 to human recombinant HDAC6
# Sequence of Histone deacetylase 4 (P56524 whole entry, the tested form may be a part): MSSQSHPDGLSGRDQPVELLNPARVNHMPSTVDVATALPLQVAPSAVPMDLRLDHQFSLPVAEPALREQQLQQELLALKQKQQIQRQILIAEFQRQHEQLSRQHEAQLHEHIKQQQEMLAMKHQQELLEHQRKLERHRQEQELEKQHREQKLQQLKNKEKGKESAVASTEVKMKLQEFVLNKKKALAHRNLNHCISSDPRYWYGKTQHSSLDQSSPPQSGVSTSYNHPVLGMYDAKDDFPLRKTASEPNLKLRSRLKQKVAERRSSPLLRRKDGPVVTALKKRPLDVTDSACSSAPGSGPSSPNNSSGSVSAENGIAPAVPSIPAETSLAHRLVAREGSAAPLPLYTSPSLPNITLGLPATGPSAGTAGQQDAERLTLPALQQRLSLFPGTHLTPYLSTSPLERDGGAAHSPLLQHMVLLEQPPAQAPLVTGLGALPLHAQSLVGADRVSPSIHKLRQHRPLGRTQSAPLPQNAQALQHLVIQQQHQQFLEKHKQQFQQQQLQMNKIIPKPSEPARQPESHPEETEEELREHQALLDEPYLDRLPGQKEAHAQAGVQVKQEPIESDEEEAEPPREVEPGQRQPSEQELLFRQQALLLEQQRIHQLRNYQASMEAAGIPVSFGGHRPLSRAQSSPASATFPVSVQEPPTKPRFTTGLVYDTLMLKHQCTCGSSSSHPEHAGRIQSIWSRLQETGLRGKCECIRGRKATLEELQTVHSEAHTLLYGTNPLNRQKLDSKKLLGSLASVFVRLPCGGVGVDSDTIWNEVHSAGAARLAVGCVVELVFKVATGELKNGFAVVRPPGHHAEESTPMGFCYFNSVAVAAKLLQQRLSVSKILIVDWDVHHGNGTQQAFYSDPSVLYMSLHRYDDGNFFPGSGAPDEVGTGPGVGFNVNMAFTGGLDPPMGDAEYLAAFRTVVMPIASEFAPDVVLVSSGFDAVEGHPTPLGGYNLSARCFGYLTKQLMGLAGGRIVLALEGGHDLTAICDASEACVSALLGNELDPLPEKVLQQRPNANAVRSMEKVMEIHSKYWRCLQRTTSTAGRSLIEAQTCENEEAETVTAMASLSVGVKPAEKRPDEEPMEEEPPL
# Sequence of Histone deacetylase 1 (Q13547 whole entry, the tested form may be a part): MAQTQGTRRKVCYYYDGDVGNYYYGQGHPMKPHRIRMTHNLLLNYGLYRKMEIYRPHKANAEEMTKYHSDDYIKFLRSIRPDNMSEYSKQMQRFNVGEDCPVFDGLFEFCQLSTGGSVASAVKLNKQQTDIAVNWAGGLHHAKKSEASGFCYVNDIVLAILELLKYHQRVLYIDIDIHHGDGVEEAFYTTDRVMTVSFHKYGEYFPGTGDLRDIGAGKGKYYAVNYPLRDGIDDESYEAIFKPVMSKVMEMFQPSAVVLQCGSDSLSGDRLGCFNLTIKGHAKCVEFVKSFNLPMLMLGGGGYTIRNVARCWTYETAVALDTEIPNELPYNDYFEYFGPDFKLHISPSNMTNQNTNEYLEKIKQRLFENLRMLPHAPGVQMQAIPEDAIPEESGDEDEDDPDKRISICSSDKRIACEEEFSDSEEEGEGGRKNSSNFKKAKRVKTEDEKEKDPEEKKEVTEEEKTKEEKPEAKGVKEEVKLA
solubility [1] [µM],EC50 (PC-3) [µM],logD [2],EC50 (HCT-116) [µM],IC50 (Histone deacetylase) [µM],IC50 (Histone deacetylase 4) [µM],IC50 (Histone deacetylase 1) [µM],EC50 (HepG2) [µM],Ratio IC50 (Homo sapiens [3]),EC50 (A549) [µM],IC50 [4] [µM],Ratio IC50 (Homo sapiens [5]),SMILES
3110,15.9,1.8,4.02,0.089,–,–,22.6,–,8.36,–,–,O=C(/C=C/c1ccc(CN(CCO)Cc2ccc(-c3ccccc3)cc2)o1)NO
4000,> 138,1.62,12.1,0.17,11.3,12.7,128,26.3,97.2,0.43,29.7,O=C(/C=C/c1ccc(CN(CCO)Cc2ccccc2)o1)NO
2800,25,2.54,24.9,0.17,10.6,4.95,16.7,60,23.2,0.18,28.1,CCCN(Cc1ccccc1)Cc1ccc(/C=C/C(=O)NO)o1
–,18.7,–,28.5,0.84,52.5,17.8,66.7,11.3,27,4.65,3.83,Cc1ccc(OCCN(CCc2ccc3c(c2)OCO3)Cc2ccc(/C=C/C(=O)NO)o2)cc1

# The next lines start with the molecule.
SMILES,solubility [1] [µM],EC50 (PC-3) [µM],logD [2],EC50 (HCT-116) [µM],IC50 (Histone deacetylase) [µM],IC50 (Histone deacetylase 4) [µM],IC50 (Histone deacetylase 1) [µM],EC50 (HepG2) [µM],Ratio IC50 (Homo sapiens [3]),EC50 (A549) [µM],IC50 [4] [µM],Ratio IC50 (Homo sapiens [5])
CCCCN(Cc1ccccc1)Cc1ccc(/C=C/C(=O)NO)o1,2300,20.7,2.97,18.3,0.54,7.26,4.69,24.3,30.9,14.5,0.23,20
CCN(Cc1ccccc1)Cc1ccc(/C=C/C(=O)NO)o1,3000,104,1.95,6.37,0.13,10.7,5.44,> 167,42.3,38.4,0.25,21.4
CCCCCCCCN(Cc1ccccc1)Cc1ccc(/C=C/C(=O)NO)o1,1900,42.3,5.28,0.47,2.55,–,–,3.96,–,6.59,–,–
